Measurements from patent US5614548A, “Quaternary amine containing ether or ester lipid derivatives and therapeutic compositions” (priority 1994, dated 1997).

Key:
[1] = tested on: HIV-1; experiment: HIV-1 plaque assay, inhibitor added 60 minutes after infection; assay type: cell-based, human immunodeficiency virus type 1 (HIV-1); settings: for IC50: Human immunodeficiency virus 1, CEM-SS monolayers, compound from sixty minutes after infection, N = 4, read-out: Inhibitory Concentration50 HIV-1 Plaque Formation; for anti-HIV-1 activity: HIV-1 plaque formation, in words
Excerpt: (§1) Dextran sulfate was used as a positive control. […] Plaques were counted at five days after infection.
(§2) By way of further background, in our assay HIV-1 syncytial plaques are seen as large, multicellular foci (10 to 25 nuclei/syncytium) that appear either brown and granular or clear. Since the number of HIV-1 syncytial plaques correlates with reverse transcriptase (RT) and p24 core antigen activity in the HIV-1 infected cell overlay fluids, the syncytial plaque assay can be used to quantify the amount of infectious virus. Reverse transcriptase activity was assayed according to a described procedure (B. J. Poeisz et al., Proc. Natl. Acad. Sci. (U.S.A.) […], 7415 (1980)). The activity of p24 core antigen induced by HIV-1 infection of CEM-SS cells was measured spectrophotometrically using the commercial Abbott EIA.
(§3) Compound E inhibited HIV-1 plaque count 43%, 83%, and 91% at concentrations of 0.2, 0.4, and 2.0 μM, respectively, compared to untreated controls. […] In other experiments addition of 0.2, 0.4 and 2.0 μM Compound E starting sixty minutes after HIV-1 infection inhibited HIV-1 plaque formation 28%, 59% and 97% respectively, compared to untreated controls.
(§4) Next investigated were the correlations of EL analog structure with anti-HIV-l and anti-cell growth. The experimental method used six serial two-fold dilutions of EL that spanned concentrations above and below a concentration that inhibits HIV-1 plaque count, cell growth (^3 H-TdR uptake into cell DNA) or in vitro PKC activity by 50% (inhibitory concentration50 =IC50) compared to an appropriate mock treated control. Table 7 summarizes data on IC50 of phosphorus and non-phosphorus compounds for HIV-1 plaque formation and cell growth.
^1 Serial 2fold dilutions of compounds are used. HIV1 plaque formatio
is measured in CEMSS cell monolayers by having compound present starting
sixty minutes after virus infection. IC50 values for HIV1 plaque
formation are x ± one SD., N = 4. CEMSS cell growth is measured in […]

[2] = tested on: CEM-SS cells; experiment: CEM-SS cell growth (3H-TdR uptake); assay type: cell-based; settings: Homo sapiens, 48 hours, N = 3, read-out: Inhibitory Concentration50 CEM-SS Cell Growth
Excerpt: as §4
formation are x ± one SD., N = 4. CEMSS cell growth is measured in
suspension cultures by treating the cells with compound for 48 hours at
37° C. and then adding 1 μCi of ^3 HTdR (S.A. = 20 Ci/mmole
for 8 hours at 37° C. to measure DNA synthesis. IC50 values
for CEMSS growth are x of a representative experiment, N = 3.

[3] = tested on: HL60 human leukemia cell line; experiment: HL60 cell growth inhibition (trypan blue, 48 h); assay type: cell-based; settings: Homo sapiens, HL-60, 48 h, HL60, 48 hours; read-out: ID50 (the source's name)
Protocol: A number of the compounds disclosed herein have been tested against the HL60 human leukemia cell line to assess their cytotoxic potential. These analogs were investigated in parallel with ET-18-OMe which was used as the reference compound. The methodologies used in this investigation were the same as described in A. Noseda, M. Berens, C. Piantadosi, and E. J. Modest, Lipids 22, 878-883, 1987. In brief, HL60 cells at a concentration of […] were incubated in wells with one milliliter medium with the experimental drug in parallel with the same concentration of cells with ET-18-OMe (standard) or EtOH (control). After 48 hours of incubation the cells were counted using the trypan blue dye exclusion technique to determine the effect of the drug on cell growth. The experimental drug and ET-18-OMe were tested at the same concentrations, e.g., 10, 5, 2.5 and 1.25 μM.

[4] = tested on: HIV-1; experiment: HIV-1 plaque assay, inhibitor added 30 minutes before infection; assay type: cell-based, human immunodeficiency virus type 1 (HIV-1)
Excerpt: as §1, §2, §3

[5] = tested on: Protein Kinase C; experiment: Protein Kinase C activity (32P incorporation into histone); assay type: biochemical, human (HL-60 cells)
Protocol: PKC was prepared and assayed as described previously. See Daniel, L. W. et al., Biochem. Biophys. Res. Comm. 151, 291 (1988). In brief, HL-60 cells were grown in 75 milliliter flasks, harvested and washed with ice-cold normal saline. After centrifugation (600×g, 5 minutes, 4° Centigrade), the cell pellet was resuspended (20 mM Tris-HCl, pH 7.5, 2 mM EDTA, 10 mM EGTA, 50 mM 2-mercaptoethanol, 2 mM phenylmethylsulfonyl fluoride) and sonicated for 20 s with a stepped microprobe sonciator. Unbroken cells were removed by centrifugation as above and the supernatant centrifuged (65,000×g, 90 minutes, 4° Centigrade). The supernatant from this step (cytosol) was then fractionated on a 1×8 cm DEAE-Sephacel column after addition to sucrose to a final concentration of 10%. After equilibrating the column (20 mM Tris, pH 7.5, 0.2 mM EDTA, 0.2 mM EGTA, 50 mM 2-mercaptoethanol, 10% sucrose), the sample was loaded and unbound material was washed through with 40 milliliters of the equilibrating buffer. The PKC was eluted by a gradient from 0-0.5M NaCl in the buffer described above. Fractions of 1 milliliter were collected at 25 milliliters per hour and 0.05 milliliter aliquots assayed for PKC activity as described below. The fractions with the highest activity were pooled and used in further experiments.
The assays were done at pH 7.5 in a total volume of 0.25 milliliter and all tubes contained 25 mM Tris, 10 mM MgCl2, 40 μg per milliliter histone, 10 μM ATP (including 1 μCi of [gamma-^32 P]-ATP), 0.1 mM CaCl2, 20 μg per milliliter phosphatidylserine, 0.05 milliliter of the PKC preparation and 2.5 μM of oleoylacetylglycerol (OAG). Enzymatic activity was determined as the incorporation of ^32 P from [gamma-^32 P]-ATP) into histone in the presence of Ca^2+, phosphatidylserine, and OAG. Reactions were initiated by the addition of the enzyme preparation and halted after 20 minutes at 30° Centigrade by the addition of 0.05 milliliters of bovine serum albumin (10 milligrams per milliliter) and 1 milliliter 25% ice-cold trichloroacetic acid. The tubes were kept on ice and then filtered in a millipore vacuum box using Millipore® HA filters and washed with 25% trichloroacetic acid. The radioactivity bound to the filters was determined by scintillation spectrometry in 5 milliliters Budget Solve®. […] The analog to be tested was dissolved in ethanol, and added directly into the reaction mixture before the addition of PKC. As a control, 0.1% ethanol was included in the samples with the enzyme but with no inhibitor.

SMILES: CCCCCCCCCCCCCCCC(=O)OC[C@H](COP(=O)([O-])OCC[N+](C)(C)C)OC(=O)CCCCCCCCCCCCCCC [dipalmitoyl-phosphatidylcholine, reference compound]
- IC50 [1]: > 1360 µM
- IC50 [2]: > 681 µM

SMILES: CCCCCCCCCCCCCCCCSCC(C[N+](C)(C)CCO)OC.[Br-] (racemic) [CJM 57, (±)-3-hexadecylthio-2-methoxy-N,N-dimethyl-N-β-hydroxyethyl-1-propyl ammonium bromide]
- IC50 [3]: 4.6 µM
- inhibition at 0.2 µM ([4]; Human immunodeficiency virus 1, 0.2 μM, 30 minutes before infection, Table 6): 30%
- inhibition at 0.4 µM ([4]; Human immunodeficiency virus 1, 0.4 μM, 30 minutes before infection, Table 6): 38%
- inhibition at 2 µM ([4]; Human immunodeficiency virus 1, 2.0 μM, 30 minutes before infection, Table 6): 85%
- inhibition at 0.2 µM ([4]; Human immunodeficiency virus 1, HIV-1 plaque formation, 0.2 μM, Table 5): 43%
- inhibition at 0.4 µM ([4]; Human immunodeficiency virus 1, HIV-1 plaque formation, 0.4 μM, Table 5, read-out: Inhibition (%)): 83%
- inhibition at 2 µM ([4]; Human immunodeficiency virus 1, HIV-1 plaque formation, 2 μM, Table 5): 91%
- antiviral activity (HIV-1 plaque formation) ([4]; added before or after infection, in words): antiviral activity
- anti-HIV-1 activity [1]: significant anti-HIV-1 activity
- inhibition at 0.2 µM ([1]; Human immunodeficiency virus 1, 1 h, 0.2 μM, 60 minutes after infection): 28%
- inhibition at 0.4 µM ([1]; Human immunodeficiency virus 1, 1 h, 0.4 μM, 60 minutes after infection): 59%
- inhibition at 2 µM ([1]; Human immunodeficiency virus 1, 1 h, 2.0 μM, 60 minutes after infection, read-out: Inhibition (%)): 97%
- IC50 [1]: 0.37 ± 0.01 µM
- IC50 [2]: 3.2 µM

SMILES: CCCCCCCCCCCCCCCCOCC(O)(CO)CCCCCCCC (stereo not shown) [J]
- anti-HIV-1 activity [1]: did not inhibit HIV-1 plaque formation
- IC50 [1]: > 10 µM
- IC50 [2]: > 20 µM

SMILES: CCCCCCCCCCCCCCCCCCSCC(C[N+](C)(C)CCCO)OC (stereo not shown) [I]
- Percent Protein Kinase C Activity Retained ([5]; 1.25 μM): 75%
- Percent Protein Kinase C Activity Retained ([5]; 2.5 μM): 56%
- Percent Protein Kinase C Activity Retained ([5]; 5.0 μM): 49%
- Percent Protein Kinase C Activity Retained ([5]; 10.0 μM): 39%
- Percent Protein Kinase C Activity Retained ([5]; 20.0 μM): 27%
- Percent Protein Kinase C Activity Retained ([5]; 40.0 μM): 23%
- anti-HIV-1 activity [1]: significant anti-HIV-1 activity
- IC50 [1]: 0.52 ± 0.33 µM
- IC50 [2]: 3.4 µM

SMILES: CCCCCCCCCCCCCCCCSCC(C[N+](C)(C)CCO)OCC (stereo not shown) [B]
- Percent Protein Kinase C Activity Retained ([5]; 1.25 μM): 92%
- Percent Protein Kinase C Activity Retained ([5]; 2.5 μM): 84%
- Percent Protein Kinase C Activity Retained ([5]; 5.0 μM): 70%
- Percent Protein Kinase C Activity Retained ([5]; 10.0 μM): 70%
- Percent Protein Kinase C Activity Retained ([5]; 20.0 μM): 66%
- Percent Protein Kinase C Activity Retained ([5]; 40.0 μM): 47%
- anti-HIV-1 activity [1]: significant anti-HIV-1 activity
- IC50 [1]: 0.63 ± 0.18 µM
- IC50 [2]: 5.4 µM
